Legend:
Phakopsora pachyrhizi = assay: Asian rust tolerance assay of transformed soybean plants; assay type: in vivo, Phakopsora pachyrhizi on Glycine max; conditions: sprayed with 10^6 spores/mL, 15 days, control plants 45±8
Experimental: The gene encoding the peptide gb|ABM17058.1|(213–231), primary structure […], was synthesized by Epoch Life Science Inc. (Sugar Land, TX, USA) and cloned into the vector pBluKSPOXDCAHAS replacing the oxdc gene. The vector was used to transform soybean plants as previously described, [31]. Six intragenic soybean lines were tested for tolerance to Asian rust (Phakopsora pachyrhizi). The plants (20 plants per line at V3 stage) were sprayed with a spore suspension (10^6 spores/mL) and maintained in the greenhouse at room temperature and sprinkling 4 times a day. Leaves were photographed after 15 days and the number of pustules per square centimeter counted.

[1] = system: Xanthomonas axonopodis pv. glycines; conditions: in vitro growth
Experimental: MICs were determined using the M7-A6 protocol from the Clinical Laboratory Standards Institute (CLSI). […] Initial bacterium inoculum of ∼10^5 colony forming units/mL were transferred, along with serial 2-fold dilutions of each peptide to 96-well plates and incubated for 12 h. […] For each peptide concentration, optical density (OD600) readings were subtracted from that of the growth medium and divided by the positive control (100% bacterial growth). Inhibitory assays for X. axonopodis pv. glycines were conducted by the same methodology with longer incubation time (48 h).

[2] = system: Phakopsora pachyrhizi spores; assay: In situ germination inhibition of Phakopsora pachyrhizi spores on Glycine max leaves' surface; assay type: cell-based; conditions: 8 µg/mL (3 µM) peptide co-incubated with 3.5×10^5/ml spores on G. max leaf disks, 7 days, 21°C; average of three experiments
Experimental: P. pachyrhizi spores were scraped off infected G. max leaves and were frozen at −80°C. Prior to the in situ assay, spores were dissolved in Mili-Q® water, incubated at 40°C for 40 min and quantified using a Neubauer chamber. […]. BR-16). Spores were then co-incubated with fifty microliters of a peptide solution at concentrations ranging from 8 to 128 µg/mL. Leaves were immediately placed on a Petri dish containing moist filter papers and incubated at 21°C under 12 h-photoperiod and photographed after 7 days. Images were used to measure the infected area using the QUANT v1.0.1 software.

Sequence	number of uredia per foliar area (Phakopsora pachyrhizi; transformed G. max lineage 72.14.5, V3 stage)	number of uredia per foliar area (Phakopsora pachyrhizi; transformed G. max lineage 72.14.9, V3 stage)	concentration that inhibited the in vitro growth of X. axonopodis pv. glycines [1]	infected area [2]
MIKAFKEATKVDKVVVLWTA [gb|ABM17058.1|(213–231), IAP, fragment of G. max D-myo-inositol 3-phosphate synthase; expressed in transformed soybean lineages 72.14.5 and 72.14.9]	7±3 pustules/cm^2	12±3 pustules/cm^2	–	–
RWRFLRKISSVHMFSVKALDDFRQL [Gm0025x00667(75–100), novel IAP, fragment of the G. max enzyme flavonoid 3-hydroxylase]	–	–	5 µM	approximately 50 % of the control

— publication PMC3461044, “Probing Protein Sequences as Sources for Encrypted Antimicrobial Peptides” (PLoS ONE, 2012)
